Test results from patent US11780901B2, “Analogues of parathyroid hormone (1-34) that function as agonists of the parathyroid hormone receptor-1 and display modified activity profiles” (Wisconsin Alumni Research Foundation, priority 2013, dated 2023).
Where two headings read alike, the source gives them in different places. Starred links: 1 amine or outer side, 2 acyl side, 3 side chain; linkers in the order of their positions; H or OH if unused. Non-standard residues stand in square brackets, D forms with d. Residues, ends and D or L forms follow the SMILES beside them. X4 = O=C(O)CC[C@@H](CN[*:1])C(=O)[*:2]

How the values were obtained:
Type in all cases: cell-based
PTHR1 = target: T1, PTHR1 (Homo sapiens, UniProt Q03431); assay: PTHR1 activation, cAMP production (GloSensor) in HEK293 cells; parameters: expressed in transfected cells; settings: for PTHR1 Activation: Derivative EC50/PTH EC50: normalized to EC50 of PTH(1-34)-NH2 ([…]), cAMP production
T1 sequence (Q03431 27-593): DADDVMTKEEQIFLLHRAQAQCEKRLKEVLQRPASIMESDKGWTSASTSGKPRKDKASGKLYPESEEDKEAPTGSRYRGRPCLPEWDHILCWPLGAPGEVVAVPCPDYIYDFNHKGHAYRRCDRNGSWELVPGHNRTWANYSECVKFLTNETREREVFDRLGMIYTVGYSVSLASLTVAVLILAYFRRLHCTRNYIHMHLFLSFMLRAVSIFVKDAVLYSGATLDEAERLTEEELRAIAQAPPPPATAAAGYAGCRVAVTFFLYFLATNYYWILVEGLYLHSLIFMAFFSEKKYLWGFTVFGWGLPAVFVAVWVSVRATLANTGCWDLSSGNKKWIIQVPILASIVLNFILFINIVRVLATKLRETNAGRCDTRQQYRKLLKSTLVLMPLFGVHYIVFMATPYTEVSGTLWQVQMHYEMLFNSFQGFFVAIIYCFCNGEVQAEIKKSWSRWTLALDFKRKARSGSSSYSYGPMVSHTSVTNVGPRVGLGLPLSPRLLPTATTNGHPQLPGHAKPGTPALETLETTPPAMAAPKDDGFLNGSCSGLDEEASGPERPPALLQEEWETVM
Excerpt: The assays employ HEK-293 cells that have been engineered to express the appropriate receptor. GloSensor-based detection of cAMP provides a read-out of receptor activation.
(§1) For PTHR1 activation and all the binding data, data represent mean±s.e.m from three independent measurements; For PTHR2 activation, data represent mean±s.e.m from four independent measurements. Curves were fit to the data using a four-parameter sigmoidal dose-response equation.
For cAMP dose-response assays, monolayers of confluent HEK 293 cells were pre-incubated with buffer containing d-luciferin (0.5 mM) in 96 well plates at room temperature until a stable baseline level of luminescence was established (30 min). Varying concentrations of agonist were then added, and the time course of luminescence response was recorded using a Perkin Elmer plate reader following α/β-peptide addition.

PTHR1 and PTHR2 = assay: Tolerance pattern of β residues for PTHR1 and PTHR2 activation; parameters: key: “*” denotes potent PTHR1-selective agonism; “#” denotes potent PTHR2-selective agonism; “*#” denotes potent agonism of both PTHR1 and PTHR2; settings: PTHR1 vs PTHR2 agonism
Excerpt: Enhanced selectivity via double α→β replacement.

PTHR2 = PTHR2 (Homo sapiens, UniProt P49190); assay: PTHR2 activation, cAMP production (GloSensor) in HEK293 cells; parameters: expressed in transfected cells; key to PTHR2 Activation: Derivative EC50/PTH EC50: *** denotes poor tolerance of β amino acid for PTHR2 activation; settings: for EC50: HEK-293 cells, GloSensor cAMP, read-out: EC50 (nM) of PTHR2 Activation; for PTHR2 Activation: Derivative EC50/PTH EC50: normalized to EC50 of PTH(1-34)-NH2 ([…] printed), cAMP production
Excerpt: The assays employ HEK-293 cells that have been engineered to express the appropriate receptor. GloSensor-based detection of cAMP provides a read-out of receptor activation. […] (Carter, P. H. et al. Actions of the Small Molecule Ligands SW106 and AH-3960 on the Type-1 Parathyroid Hormone Receptor. Molecular Endocrinology 29, 307-321 (2015).)
as §1, with “FIGS. 10A and 10B depict dose-response curves of PTHR1 activation (FIG. 10A) and PTHR2 activation (FIG. 10B) in HEK293 cells stably expressing PTHR1 or PTHR2. For PTHR1” for “For PTHR1”

[1] = HEK-293 cells, GloSensor cAMP, read-out: EC50 (nM) of PTHR1 Activation
[2] = Table 8, hPTHR1, read-out: PTHR1 EC50

Sequence of PTHR2 (P49190 25-550): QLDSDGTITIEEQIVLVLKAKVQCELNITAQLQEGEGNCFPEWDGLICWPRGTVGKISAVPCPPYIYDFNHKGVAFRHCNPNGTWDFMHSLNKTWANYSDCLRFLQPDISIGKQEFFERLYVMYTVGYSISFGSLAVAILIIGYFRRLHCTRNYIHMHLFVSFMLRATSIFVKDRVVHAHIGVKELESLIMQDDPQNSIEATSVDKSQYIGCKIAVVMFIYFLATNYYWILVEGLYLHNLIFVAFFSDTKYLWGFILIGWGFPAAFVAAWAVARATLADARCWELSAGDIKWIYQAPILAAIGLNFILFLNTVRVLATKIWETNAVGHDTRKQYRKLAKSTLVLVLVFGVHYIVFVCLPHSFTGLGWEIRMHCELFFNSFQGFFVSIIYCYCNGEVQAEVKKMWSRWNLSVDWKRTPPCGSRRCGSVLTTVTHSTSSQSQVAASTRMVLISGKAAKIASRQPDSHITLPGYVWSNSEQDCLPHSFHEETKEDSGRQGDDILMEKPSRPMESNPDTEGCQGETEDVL

CC[C@H](C)[C@H](NC(=O)[C@H](CCC(=O)O)NC(=O)[C@H](CO)NC(=O)[C@@H](CNC(=O)[C@@H](N)CO)C(C)C)C(=O)N[C@@H](CCC(N)=O)C(=O)N[C@@H](CC(C)C)C(=O)N[C@@H](CCSC)C(=O)N[C@@H](Cc1c[nH]cn1)C(=O)N[C@@H](CC(N)=O)C(=O)N[C@@H](CC(C)C)C(=O)NCC(=O)N[C@@H](CCCCN)C(=O)N[C@@H](Cc1c[nH]cn1)C(=O)N[C@@H](CC(C)C)C(=O)N[C@@H](CC(N)=O)C(=O)N[C@@H](CO)C(=O)N[C@@H](CCSC)C(=O)N[C@@H](CCC(=O)O)C(=O)N[C@@H](CCCNC(=N)N)C(=O)N[C@H](C(=O)N[C@@H](CCC(=O)O)C(=O)N[C@@H](Cc1c[nH]c2ccccc12)C(=O)N[C@@H](CC(C)C)C(=O)N[C@@H](CCCNC(=N)N)C(=O)N[C@@H](CCCCN)C(=O)N[C@@H](CCCCN)C(=O)N[C@@H](CC(C)C)C(=O)N[C@@H](CCC(N)=O)C(=O)N[C@@H](CC(=O)O)C(=O)N[C@H](C(=O)N[C@@H](Cc1c[nH]cn1)C(=O)N[C@@H](CC(N)=O)C(=O)N[C@@H](Cc1ccccc1)C(N)=O)C(C)C)C(C)C [SEQ. ID. NO: 23]
EC50 (PTHR1; [1]): 4.47 ± 0.47 nM | PTHR1 Activation: Derivative EC50/PTH EC50 (PTHR1): 11.76 | Tolerance Pattern of β AA (PTHR1 and PTHR2): #

CC[C@H](C)[C@H](NC(=O)[C@H](CCC(=O)O)NC(=O)[C@H](CO)NC(=O)[C@H](CNC(=O)[C@@H](N)CO)C(C)C)C(=O)N[C@@H](CCC(N)=O)C(=O)N[C@@H](CC(C)C)C(=O)N[C@@H](CCSC)C(=O)N[C@@H](Cc1c[nH]cn1)C(=O)N[C@@H](CC(N)=O)C(=O)N[C@@H](CC(C)C)C(=O)NCC(=O)N[C@@H](CCCCN)C(=O)N[C@@H](Cc1c[nH]cn1)C(=O)N[C@@H](CC(C)C)C(=O)N[C@@H](CC(N)=O)C(=O)N[C@@H](CO)C(=O)N[C@@H](CCSC)C(=O)N[C@@H](CCC(=O)O)C(=O)N[C@@H](CCCNC(=N)N)C(=O)N[C@H](C(=O)N[C@@H](CCC(=O)O)C(=O)N[C@@H](Cc1c[nH]c2ccccc12)C(=O)N[C@@H](CC(C)C)C(=O)N[C@@H](CCCNC(=N)N)C(=O)N[C@@H](CCCCN)C(=O)N[C@@H](CCCCN)C(=O)N[C@@H](CC(C)C)C(=O)N[C@@H](CCC(N)=O)C(=O)N[C@@H](CC(=O)O)C(=O)N[C@H](C(=O)N[C@@H](Cc1c[nH]cn1)C(=O)N[C@@H](CC(N)=O)C(=O)N[C@@H](Cc1ccccc1)C(N)=O)C(C)C)C(C)C [SEQ. ID. NO: 31]
EC50 (PTHR2): 4.72 ± 1.04 nM | PTHR2 Activation: Derivative EC50/PTH EC50 (PTHR2): 5.43 | EC50 (PTHR1; [1]): 6.97 ± 1 nM | EC50 (PTHR1; [2]): 4.72 ± 1.04 nM | PTHR1 Activation: Derivative EC50/PTH EC50 (PTHR1): 18.34

CC[C@H](C)[C@H](NC(=O)[C@@H](CCC(=O)O)CNC(=O)[C@H](CO)NC(=O)[C@@H](NC(=O)[C@@H](N)CO)C(C)C)C(=O)N[C@@H](CCC(N)=O)C(=O)N[C@@H](CC(C)C)C(=O)N[C@@H](CCSC)C(=O)N[C@@H](Cc1c[nH]cn1)C(=O)N[C@@H](CC(N)=O)C(=O)N[C@@H](CC(C)C)C(=O)NCC(=O)N[C@@H](CCCCN)C(=O)N[C@@H](Cc1c[nH]cn1)C(=O)N[C@@H](CC(C)C)C(=O)N[C@@H](CC(N)=O)C(=O)N[C@@H](CO)C(=O)N[C@@H](CCSC)C(=O)N[C@@H](CCC(=O)O)C(=O)N[C@@H](CCCNC(=N)N)C(=O)N[C@H](C(=O)N[C@@H](CCC(=O)O)C(=O)N[C@@H](Cc1c[nH]c2ccccc12)C(=O)N[C@@H](CC(C)C)C(=O)N[C@@H](CCCNC(=N)N)C(=O)N[C@@H](CCCCN)C(=O)N[C@@H](CCCCN)C(=O)N[C@@H](CC(C)C)C(=O)N[C@@H](CCC(N)=O)C(=O)N[C@@H](CC(=O)O)C(=O)N[C@H](C(=O)N[C@@H](Cc1c[nH]cn1)C(=O)N[C@@H](CC(N)=O)C(=O)N[C@@H](Cc1ccccc1)C(N)=O)C(C)C)C(C)C [SEQ. ID. NO: 33] (H-SVS[X4]IQLMHNLGKHLNSMERVEWLRKKLQDVHNF-NH2; N-terminus assumed)
EC50 (PTHR2): > 100 nM | PTHR2 Activation: Derivative EC50/PTH EC50 (PTHR2): *** | EC50 (PTHR1; [1]): 10.8 ± 0.47 nM | EC50 (PTHR1; [2]): > 100 nM | PTHR1 Activation: Derivative EC50/PTH EC50 (PTHR1): 28.42

CC[C@H](C)[C@H](NC(=O)[C@H](CCC(=O)O)NC(=O)[C@H](CO)NC(=O)C[C@@H](NC(=O)[C@@H](N)CO)C(C)C)C(=O)N[C@@H](CCC(N)=O)C(=O)N[C@@H](CC(C)C)C(=O)N[C@@H](CCSC)C(=O)N[C@@H](Cc1c[nH]cn1)C(=O)N[C@@H](CC(N)=O)C(=O)N[C@@H](CC(C)C)C(=O)NCC(=O)N[C@@H](CCCCN)C(=O)N[C@@H](Cc1c[nH]cn1)C(=O)N[C@@H](CC(C)C)C(=O)N[C@@H](CC(N)=O)C(=O)N[C@@H](CO)C(=O)N[C@@H](CCSC)C(=O)N[C@@H](CCC(=O)O)C(=O)N[C@@H](CCCNC(=N)N)C(=O)N[C@H](C(=O)N[C@@H](CCC(=O)O)C(=O)N[C@@H](Cc1c[nH]c2ccccc12)C(=O)N[C@@H](CC(C)C)C(=O)N[C@@H](CCCNC(=N)N)C(=O)N[C@@H](CCCCN)C(=O)N[C@@H](CCCCN)C(=O)N[C@@H](CC(C)C)C(=O)N[C@@H](CCC(N)=O)C(=O)N[C@@H](CC(=O)O)C(=O)N[C@H](C(=O)N[C@@H](Cc1c[nH]cn1)C(=O)N[C@@H](CC(N)=O)C(=O)N[C@@H](Cc1ccccc1)C(N)=O)C(C)C)C(C)C [SEQ. ID. NO: 39]
Tolerance Pattern of β AA (PTHR1 and PTHR2): *#

CC[C@H](C)[C@H](NC(=O)[C@H](CCC(=O)O)NC(=O)C[C@H](CO)NC(=O)[C@@H](NC(=O)[C@@H](N)CO)C(C)C)C(=O)N[C@@H](CCC(N)=O)C(=O)N[C@@H](CC(C)C)C(=O)N[C@@H](CCSC)C(=O)N[C@@H](Cc1c[nH]cn1)C(=O)N[C@@H](CC(N)=O)C(=O)N[C@@H](CC(C)C)C(=O)NCC(=O)N[C@@H](CCCCN)C(=O)N[C@@H](Cc1c[nH]cn1)C(=O)N[C@@H](CC(C)C)C(=O)N[C@@H](CC(N)=O)C(=O)N[C@@H](CO)C(=O)N[C@@H](CCSC)C(=O)N[C@@H](CCC(=O)O)C(=O)N[C@@H](CCCNC(=N)N)C(=O)N[C@H](C(=O)N[C@@H](CCC(=O)O)C(=O)N[C@@H](Cc1c[nH]c2ccccc12)C(=O)N[C@@H](CC(C)C)C(=O)N[C@@H](CCCNC(=N)N)C(=O)N[C@@H](CCCCN)C(=O)N[C@@H](CCCCN)C(=O)N[C@@H](CC(C)C)C(=O)N[C@@H](CCC(N)=O)C(=O)N[C@@H](CC(=O)O)C(=O)N[C@H](C(=O)N[C@@H](Cc1c[nH]cn1)C(=O)N[C@@H](CC(N)=O)C(=O)N[C@@H](Cc1ccccc1)C(N)=O)C(C)C)C(C)C [SEQ. ID. NO: 40]
Tolerance Pattern of β AA (PTHR1 and PTHR2): #

CC[C@H](C)[C@H](NC(=O)[C@H](CCC(=O)O)NC(=O)[C@H](CO)NC(=O)[C@@H](NC(=O)[C@@H](N)CO)C(C)C)C(=O)N[C@@H](CCC(N)=O)C(=O)N[C@@H](CC(C)C)C(=O)N[C@@H](CCSC)CC(=O)N[C@@H](Cc1cnc[nH]1)C(=O)N[C@@H](CC(N)=O)C(=O)N[C@@H](CC(C)C)C(=O)NCC(=O)N[C@@H](CCCCN)C(=O)N[C@@H](Cc1cnc[nH]1)C(=O)N[C@@H](CC(C)C)C(=O)N[C@@H](CC(N)=O)C(=O)N[C@@H](CO)C(=O)N[C@@H](CCSC)C(=O)N[C@@H](CCC(=O)O)C(=O)N[C@@H](CCCNC(=N)N)C(=O)N[C@H](C(=O)N[C@@H](CCC(=O)O)C(=O)N[C@@H](Cc1c[nH]c2ccccc12)C(=O)N[C@@H](CC(C)C)C(=O)N[C@@H](CCCNC(=N)N)C(=O)N[C@@H](CCCCN)C(=O)N[C@@H](CCCCN)C(=O)N[C@@H](CC(C)C)C(=O)N[C@@H](CCC(N)=O)C(=O)N[C@@H](CC(=O)O)C(=O)N[C@H](C(=O)N[C@@H](Cc1cnc[nH]1)C(=O)N[C@@H](CC(N)=O)C(=O)N[C@@H](Cc1ccccc1)C(N)=O)C(C)C)C(C)C [SEQ. ID. NO: 45]
EC50 (PTHR2): > 100 nM | EC50 (PTHR1; [1]): 21 ± 2.3 nM
